Residue numbers refer to the chain shown, from its start. Where a SMILES comes first, the peptide text is derived from it. Bridges are numbered along the chain shown (N, C = ends).
Experiments:
Assay in all cases: cAMP accumulation
Format in all cases: cell-based
hCTR E294A = molecular target: T1, hCTR E294A (Homo sapiens, UniProt P30988, E294A); details: mean ± S.E.M.; for Emax: cAMP maximal response, SEM; for EC50: cAMP, CV1-FlpIn cells, 30 min, IBMX
T1 construct: c-Myc (N); expressed in transfected cells
T1 sequence (P30988 25-474 E294A): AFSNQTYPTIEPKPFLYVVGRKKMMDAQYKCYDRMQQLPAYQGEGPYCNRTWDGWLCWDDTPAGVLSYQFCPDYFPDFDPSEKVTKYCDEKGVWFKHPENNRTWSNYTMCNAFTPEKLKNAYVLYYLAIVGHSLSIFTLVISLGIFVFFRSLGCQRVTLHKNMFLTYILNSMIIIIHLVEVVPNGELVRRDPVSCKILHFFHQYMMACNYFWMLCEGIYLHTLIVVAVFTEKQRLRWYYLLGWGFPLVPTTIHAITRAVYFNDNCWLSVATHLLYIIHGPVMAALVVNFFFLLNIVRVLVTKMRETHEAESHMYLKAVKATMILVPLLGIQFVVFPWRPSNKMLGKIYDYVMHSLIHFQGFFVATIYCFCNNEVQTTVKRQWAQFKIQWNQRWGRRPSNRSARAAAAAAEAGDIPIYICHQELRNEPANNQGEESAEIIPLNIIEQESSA
How it was run: (§1)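 Read-out: cAMP accumulated over 30 min of graded ligand exposure in IBMX-containing medium, expressed relative to 100 μM forskolin. Potency (EC50) and maximal effect (Emax) derive from 3-parameter logistic concentration-response curves.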

hCTR T280A = molecular target: T2, hCTR T280A (Homo sapiens, UniProt P30988, T280A); details: mean ± S.E.M.; for Emax: cAMP maximal response, SEM; for EC50: cAMP, CV1-FlpIn cells, 30 min, IBMX
T2 construct: expressed in transfected cells
T2 sequence (P30988 25-474 T280A): T1 sequence (P30988 25-474 E294A) with T256A, A270E
How it was run: as §1

hCTR V293A = molecular target: T3, hCTR V293A (Homo sapiens, UniProt P30988, V293A); details: mean ± S.E.M.; for Emax: cAMP maximal response, SEM; for EC50: cAMP, CV1-FlpIn cells, 30 min, IBMX
T3 construct: c-Myc (N); expressed in transfected cells
T3 sequence (P30988 25-474 V293A): T1 sequence (P30988 25-474 E294A) with V269A, A270E
How it was run: as §1

hCTR W290A = molecular target: T4, hCTR W290A (Homo sapiens, UniProt P30988, W290A); details: mean ± S.E.M.; for Emax: cAMP maximal response, SEM
T4 construct: c-Myc (N); expressed in transfected cells
T4 sequence (P30988 25-474 W290A): T1 sequence (P30988 25-474 E294A) with W266A, A270E
How it was run: as §1

hCTR Y372A = molecular target: T5, hCTR Y372A (Homo sapiens, UniProt P30988, Y372A); details: mean ± S.E.M.; for Emax: cAMP maximal response, SEM; for EC50: cAMP, CV1-FlpIn cells, 30 min, IBMX
T5 construct: c-Myc (N); expressed in transfected cells
T5 sequence (P30988 25-474 Y372A): T1 sequence (P30988 25-474 E294A) with A270E, Y348A
How it was run: as §1

SMILES | Emax (hCTR E294A) [%] | Emax (hCTR T280A) [%] | Emax (hCTR V293A) [%] | Emax (hCTR W290A) [%] | Emax (hCTR Y372A) [%] | EC50 (hCTR E294A) [nM] | EC50 (hCTR T280A) [nM] | EC50 (hCTR V293A) [nM] | EC50 (hCTR Y372A) [nM] | EC50 (hCTR W290A; cAMP, CV1-FlpIn cells, 30 min, IBMX) [nM]
CC(C)C[C@H](NC(=O)[C@H](CCCCN)NC(=O)CNC(=O)[C@H](CC(C)C)NC(=O)[C@@H](NC(=O)[C@@H]1CSSC[C@H](N)C(=O)N[C@@H](CO)C(=O)N[C@@H](CC(N)=O)C(=O)N[C@@H](CC(C)C)C(=O)N[C@@H](CO)C(=O)N[C@@H]([C@@H](C)O)C(=O)N1)C(C)C)C(=O)N[C@@H](CO)C(=O)N[C@@H](CCC(N)=O)C(=O)N[C@@H](CCC(=O)O)C(=O)N[C@@H](CC(C)C)C(=O)N[C@@H](Cc1c[nH]cn1)C(=O)N[C@@H](CCCCN)C(=O)N[C@@H](CC(C)C)C(=O)N[C@@H](CCC(N)=O)C(=O)N[C@H](C(=O)N[C@@H](Cc1ccc(O)cc1)C(=O)N1CCC[C@H]1C(=O)N[C@@H](CCCNC(=N)N)C(=O)N[C@H](C(=O)N[C@@H](CC(N)=O)C(=O)N[C@H](C(=O)NCC(=O)N[C@@H](CO)C(=O)NCC(=O)N[C@H](C(=O)N1CCC[C@H]1C(N)=O)[C@@H](C)O)[C@@H](C)O)[C@@H](C)O)[C@@H](C)O [sCT] | 98 ± 9 | 107 ± 14 | 112 ± 11 | 154 ± 7 | 113 ± 10 | – | – | – | – | –
CC(C)C[C@H](NC(=O)[C@H](CC(N)=O)NC(=O)[C@H](CC(N)=O)NC(=O)[C@H](CO)NC(=O)[C@H](CO)NC(=O)[C@H](CCCNC(=N)N)NC(=O)[C@@H](NC(=O)[C@H](CC(C)C)NC(=O)[C@H](Cc1ccccc1)NC(=O)[C@H](CC(N)=O)NC(=O)[C@H](C)NC(=O)[C@H](CC(C)C)NC(=O)[C@H](CCCNC(=N)N)NC(=O)[C@H](CCC(N)=O)NC(=O)[C@@H](NC(=O)[C@H](C)NC(=O)[C@@H]1CSSC[C@H](NC(=O)[C@@H](N)CCCCN)C(=O)N[C@@H](CC(N)=O)C(=O)N[C@@H]([C@@H](C)O)C(=O)N[C@@H](C)C(=O)N[C@@H]([C@@H](C)O)C(=O)N1)[C@@H](C)O)C(C)C)C(=O)NCC(=O)N1CCC[C@H]1C(=O)N[C@H](C(=O)N[C@@H](CC(C)C)C(=O)N1CCC[C@H]1C(=O)N1CCC[C@H]1C(=O)N[C@H](C(=O)N[C@@H](CC(N)=O)C(=O)N[C@H](C(=O)NCC(=O)N[C@@H](CO)C(=O)N[C@@H](CC(N)=O)C(=O)N[C@H](C(=O)N[C@@H](Cc1ccc(O)cc1)C(N)=O)[C@@H](C)O)C(C)C)[C@@H](C)O)C(C)C [rAmy] | 90 ± 9 | 69 ± 8 | 91 ± 10 | 72 ± 26 | 170 ± 26 | – | – | – | – | –
CC[C@H](C)[C@H](NC(=O)[C@H](C)NC(=O)[C@@H](NC(=O)[C@H](CCC(N)=O)NC(=O)[C@@H]1CCCN1C(=O)[C@H](Cc1ccccc1)NC(=O)[C@@H](NC(=O)[C@H](Cc1c[nH]cn1)NC(=O)[C@H](Cc1ccccc1)NC(=O)[C@H](CCCCN)NC(=O)[C@H](CC(N)=O)NC(=O)[C@H](Cc1ccccc1)NC(=O)[C@H](CC(=O)O)NC(=O)[C@H](CCC(N)=O)NC(=O)[C@@H](NC(=O)[C@H](Cc1ccc(O)cc1)NC(=O)[C@@H](NC(=O)CNC(=O)[C@H](CC(C)C)NC(=O)[C@H](CCSC)NC(=O)[C@@H]1CSSC[C@H](N)C(=O)NCC(=O)N[C@@H](CC(N)=O)C(=O)N[C@@H](CC(C)C)C(=O)N[C@@H](CO)C(=O)N[C@@H]([C@@H](C)O)C(=O)N1)[C@@H](C)O)[C@@H](C)O)[C@@H](C)O)[C@@H](C)O)C(=O)NCC(=O)N[C@H](C(=O)NCC(=O)N[C@@H](C)C(=O)N1CCC[C@H]1C(N)=O)C(C)C [hCT] | 105 ± 5 | 97 ± 6 | 123 ± 8 | 164 ± 20 | 149 ± 12 | – | – | – | – | –
CC(C)C[C@H](NC(=O)CNC(=O)[C@H](C)NC(=O)[C@H](CC(C)C)NC(=O)[C@H](CCCNC(=N)N)NC(=O)[C@H](Cc1cnc[nH]1)NC(=O)[C@@H](NC(=O)[C@@H](NC(=O)[C@@H]1CSSC[C@H](NC(=O)[C@H](C)N)C(=O)N[C@@H](CC(=O)O)C(=O)N[C@@H]([C@@H](C)O)C(=O)N[C@@H](C)C(=O)N[C@@H]([C@@H](C)O)C(=O)N1)C(C)C)[C@@H](C)O)C(=O)N[C@@H](CC(C)C)C(=O)N[C@@H](CO)C(=O)N[C@@H](CCCNC(=N)N)C(=O)N[C@@H](CO)C(=O)NCC(=O)NCC(=O)N[C@H](C(=O)N[C@H](C(=O)N[C@@H](CCCCN)C(=O)N[C@@H](CC(N)=O)C(=O)N[C@@H](CC(N)=O)C(=O)N[C@@H](Cc1ccccc1)C(=O)N[C@H](C(=O)N1CCC[C@H]1C(=O)N[C@H](C(=O)N[C@@H](CC(N)=O)C(=O)N[C@H](C(=O)NCC(=O)N[C@@H](CO)C(=O)N[C@@H](CCCCN)C(=O)N[C@@H](C)C(=O)N[C@@H](Cc1ccccc1)C(N)=O)C(C)C)[C@@H](C)O)C(C)C)C(C)C)C(C)C [hαCGRP] | 137 ± 31 | 107 ± 21 | 153 ± 17 | – | 36 ± 8 | 49 | 3.31 | 8.71 | 123 | –
CSCC[C@H](NC(=O)CNC(=O)[C@H](CO)NC(=O)[C@H](Cc1ccccc1)NC(=O)[C@H](CCCNC(=N)N)NC(=O)[C@H](Cc1c[nH]cn1)NC(=O)[C@H](Cc1ccccc1)NC(=O)[C@H](CC(N)=O)NC(=O)[C@H](CC(N)=O)NC(=O)[C@H](CC(C)C)NC(=O)[C@H](CC(N)=O)NC(=O)[C@H](CCCNC(=N)N)NC(=O)[C@H](Cc1c[nH]c2ccccc12)NC(=O)[C@H](Cc1ccc(O)cc1)NC(=O)[C@H](C)NC(=O)[C@H](CO)NC(=O)[C@H](CC(C)C)NC(=O)[C@@H](NC(=O)[C@@H]1CSSC[C@H](N)C(=O)N[C@@H](CO)C(=O)N[C@@H](CC(N)=O)C(=O)N[C@@H](CC(C)C)C(=O)N[C@@H](CO)C(=O)N[C@@H]([C@@H](C)O)C(=O)N1)C(C)C)C(=O)NCC(=O)N[C@@H](Cc1ccccc1)C(=O)NCC(=O)N1CCC[C@H]1C(=O)N[C@@H](CCC(=O)O)C(=O)N[C@H](C(=O)N1CCC[C@H]1C(N)=O)[C@@H](C)O [pCT] (H-CSNLSTCVLSAYWRNLNNFHRFSGMGFGPETP-NH2; disulfide 1-7) | 105 ± 6 | 113 ± 5 | 107 ± 5 | 113 ± 12 | 137 ± 13 | 0.0398 | 0.0398 | 0.0501 | 1.15 | 3.31

Reference: PMC5908784, “Extracellular loops 2 and 3 of the calcitonin receptor selectively modify agonist binding and efficacy” (Biochemical Pharmacology, 2018)
